Source: ChEMBL document CHEMBL1201862, “PubChem BioAssay data set” (2004)
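Five compound concentrations were applied to cells in 96-well plates for 48 hours; endpoints were derived by simple linear interpolation of the resulting dose-response curve. Abbreviation: GI50, concentration required for 50% inhibition of growth.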 The source made the active and inactive calls. No stated cut-off is given here; in the data, active = GI50 up to about 1.1 µM and inactive = higher. Where a SMILES comes first, the peptide text is derived from it. Square brackets hold non-standard residues; d marks the D form. Peptide text beside a SMILES is read from it.

Tests used:
Assay in all cases: growth of human tumour cells (NCI), 48 h
[1] = system: DMS-273
[2] = system: HOP-18
[3] = system: KM-20L2
[4] = system: LXFL 529
[5] = system: M19-MEL
[6] = system: RXF 631
[7] = system: DMS-114
[8] = system: XF498
[9] = system: SNB-78

Row | SMILES | GI50 [1] | GI50 [2] | GI50 [3] | GI50 [4] | GI50 [5] | GI50 [6] | GI50 [7] | GI50 [8] | GI50 [9]
1 | CC1=C(C(=O)Nc2ccccc2)C(c2ccccc2Cl)C(C(=O)Nc2ccccc2)=C(C)N1 | 20.8 µM (inactive) | 21.9 µM (inactive) | 22.2 µM (inactive) | 17.6 µM (inactive) | 19.8 µM (inactive) | 36.1 µM (inactive) | – | – | –
2 | CN(C)c1cccc(OC(=O)NCCCl)c1 | > 100 µM (inactive) | > 100 µM (inactive) | – | – | > 100 µM (inactive) | – | > 100 µM (inactive) | > 100 µM (inactive) | –
3 | CC(C)Cc1ccc(C(C)/C=C2\CCC(CN3CCOCC3)C2=O)cc1 (stereo unspecified) | – | 7.87 µM (inactive) | 16.3 µM (inactive) | 1.64 µM (inactive) | 10.2 µM (inactive) | 18.1 µM (inactive) | 13.4 µM (inactive) | 16.4 µM (inactive) | 20.9 µM (inactive)
4 | CC1=NN2C(c3ccc([N+](=O)[O-])cc3)=CSC2=NC(C)(C)C1 | > 100 µM (inactive) | > 100 µM (inactive) | > 100 µM (inactive) | > 100 µM (inactive) | > 100 µM (inactive) | > 100 µM (inactive) | 67.8 µM (inactive) | > 100 µM (inactive) | > 100 µM (inactive)
5 | C=C1CCC2C(C)(CO)C(O)CCC2(C)C1CC(O)/C(=C/CO)C(=O)O (stereo unspecified) | > 100 µM (inactive) | > 100 µM (inactive) | > 100 µM (inactive) | > 100 µM (inactive) | > 100 µM (inactive) | > 100 µM (inactive) | > 100 µM (inactive) | – | > 100 µM (inactive)
6 | COc1ccc(C(N)=O)c(OC)c1OCc1ccccc1 | > 100 µM (inactive) | – | > 100 µM (inactive) | > 100 µM (inactive) | > 100 µM (inactive) | – | > 100 µM (inactive) | – | > 100 µM (inactive)
7 | N#CNCC(COCc1ccccc1)c1ccccc1 (stereo unspecified) | 94.4 µM (inactive) | > 100 µM (inactive) | > 100 µM (inactive) | – | > 100 µM (inactive) | > 100 µM (inactive) | 53.2 µM (inactive) | 47.6 µM (inactive) | –
8 | CC(C)C[C@H](NC(=O)[C@H](CC(C)C)NC(=O)[C@@H](Cc1c[nH]c2ccccc12)NC(=O)[C@H](Cc1ccccc1)NC(=O)[C@@H](Cc1c[nH]c2ccccc12)NC(=O)[C@H](CCC(N)=O)NC(=O)[C@@H](CCC(N)=O)NC(=O)[C@@H]1CCCN1C(=O)[C@@H](CCCCN)NC(=O)[C@H]1CCCN1C(=O)[C@H](N)CCCN=C(N)N)C(N)=O (H-[dR][dP][dK]P[dQ]Q[dW]F[dW]LL-NH2) | > 100 µM (inactive) | > 100 µM (inactive) | > 100 µM (inactive) | – | > 100 µM (inactive) | – | > 100 µM (inactive) | > 100 µM (inactive) | > 100 µM (inactive)
9 | O=C(Nc1ccccc1-c1nn(CN2CCNCC2)c(=S)n(CN2CCNCC2)c1=O)C(F)(F)F | 18.1 µM (inactive) | 18.2 µM (inactive) | – | – | 17.9 µM (inactive) | 20.7 µM (inactive) | 19.1 µM (inactive) | – | 23 µM (inactive)
10 | CCC1=C(C)/C(=C/c2[nH]c(CBr)c(CC)c2C)N=C1CBr | > 100 µM (inactive) | 11 µM (inactive) | 11.4 µM (inactive) | 4.43 µM (inactive) | 13.7 µM (inactive) | > 100 µM (inactive) | 7.21 µM (inactive) | – | –
11 | C[Si](C)(C)[C@@]1([Se]c2ccccc2)CC[C@@H]1C(=O)c1ccccc1 | 59.3 µM (inactive) | – | 71.8 µM (inactive) | 65.6 µM (inactive) | 32.5 µM (inactive) | > 100 µM (inactive) | 38.5 µM (inactive) | – | > 100 µM (inactive)
12 | O=C(CC1(O)C(=O)Nc2c(Cl)cccc21)c1ccccc1 (stereo unspecified) | > 100 µM (inactive) | > 100 µM (inactive) | > 100 µM (inactive) | > 100 µM (inactive) | – | – | > 100 µM (inactive) | > 100 µM (inactive) | > 100 µM (inactive)
13 | CCOc1ccc(OCC)c([P+](c2ccccc2)(c2ccccc2)c2ccccc2)c1 | 0.236 µM (active) | 0.721 µM (active) | 0.333 µM (active) | 0.198 µM (active) | 0.4 µM (active) | 2.4 µM (inactive) | 0.245 µM (active) | 0.0841 µM (active) | 0.895 µM (active)
14 | Cc1cc(/N=N/c2ccc(/N=N/c3c(O)c(S(=O)(=O)O)cc4cc(S(=O)(=O)O)ccc34)cc2C)ccc1/N=N/c1ccc2cc(S(=O)(=O)O)cc(S(=O)(=O)O)c2c1 | 98.4 µM (inactive) | > 100 µM (inactive) | 54.8 µM (inactive) | – | > 100 µM (inactive) | – | > 100 µM (inactive) | > 73.5 µM (inactive) | > 100 µM (inactive)
15 | CCOC(=O)C(Sc1ccccc1)c1c(OC)cc(=O)oc1/C=[N+](/[O-])c1ccc(N(C)C)cc1 (stereo unspecified) | 14 µM (inactive) | 17.1 µM (inactive) | 31.8 µM (inactive) | 14.1 µM (inactive) | 19.8 µM (inactive) | – | 19.4 µM (inactive) | 14.6 µM (inactive) | 27.1 µM (inactive)
16 | O=C(CCN1CCOCC1)C(=Cc1ccccc1)C(=O)CCN1CCOCC1 | 8.65 µM (inactive) | 16.8 µM (inactive) | 9.16 µM (inactive) | – | 2.83 µM (inactive) | – | – | 4.29 µM (inactive) | 0.164 µM (active)
17 | CC1NC(=O)CNC(=O)CNC(=O)C(Cc2ccc(O)cc2)NC(=O)C(C(C)C)NC(=O)C(C)NC1=O (stereo unspecified) (cyclo(GGAAVY); configuration not given here) | > 100 µM (inactive) | 30.1 µM (inactive) | – | – | > 100 µM (inactive) | – | > 100 µM (inactive) | > 100 µM (inactive) | –
18 | O=C1C(=O)N(c2ccc(Cl)c(Cl)c2)C(=O)C(=O)C1c1nc2ccccc2s1 | > 100 µM (inactive) | 21.8 µM (inactive) | > 100 µM (inactive) | > 100 µM (inactive) | > 100 µM (inactive) | – | > 100 µM (inactive) | – | > 100 µM (inactive)
19 | C/C=C/CC(S(=O)(=O)c1ccccc1)S(=O)(=O)c1ccccc1 | > 100 µM (inactive) | > 100 µM (inactive) | > 100 µM (inactive) | – | – | – | 14 µM (inactive) | > 100 µM (inactive) | –
20 | CCOc1ccccc1NC(=O)CC1Sc2ccccc2NC1=O (stereo unspecified) | 48.6 µM (inactive) | 53.2 µM (inactive) | 57.7 µM (inactive) | 59.2 µM (inactive) | 64.4 µM (inactive) | 58.5 µM (inactive) | – | 80.4 µM (inactive) | > 100 µM (inactive)
21 | CCc1ccccc1NC(=O)C1=C(C)NC(C)=C(C(=O)Nc2ccccc2CC)C1c1ccccc1Cl | – | – | > 100 µM (inactive) | > 100 µM (inactive) | > 100 µM (inactive) | – | > 100 µM (inactive) | 0.152 µM (active) | > 100 µM (inactive)
22 | CCS(=O)(=O)Nc1ccc(Nc2c3ccccc3nc3ccccc23)c(OC)c1 | 0.0324 µM (active) | 0.809 µM (active) | 1.43 µM (inactive) | – | 1.64 µM (inactive) | – | 0.216 µM (active) | 0.0223 µM (active) | 4.89 µM (inactive)
23 | CN(C)CC1CCC/C1=N/OC(=O)c1ccccc1 (stereo unspecified) | > 100 µM (inactive) | > 100 µM (inactive) | > 100 µM (inactive) | > 100 µM (inactive) | > 100 µM (inactive) | > 100 µM (inactive) | > 100 µM (inactive) | – | > 100 µM (inactive)
24 | CC12O[Te]34OC1(C)C(C)(O3)C2(C)O4 | 16.4 µM (inactive) | 17.5 µM (inactive) | 32.4 µM (inactive) | 14.6 µM (inactive) | 13.5 µM (inactive) | – | 13.6 µM (inactive) | – | 25.5 µM (inactive)
25 | O=C(O)c1cc2c(ncc3c(=O)n(-c4ccccc4)[nH]c32)s1 | > 100 µM (inactive) | > 100 µM (inactive) | > 100 µM (inactive) | > 100 µM (inactive) | > 100 µM (inactive) | – | > 100 µM (inactive) | > 100 µM (inactive) | –
26 | NC(=O)c1ncn(CCN2CCN(C(=O)NCCCCCCNC(=O)N3CCN(CCn4cnc(C(N)=O)c4N)CC3)CC2)c1N | > 100 µM (inactive) | > 100 µM (inactive) | > 100 µM (inactive) | > 100 µM (inactive) | – | > 100 µM (inactive) | – | > 100 µM (inactive) | > 100 µM (inactive)
27 | O=C(NC/C=C/CO)c1ccccc1 | > 100 µM (inactive) | > 100 µM (inactive) | > 100 µM (inactive) | – | > 100 µM (inactive) | – | > 100 µM (inactive) | > 100 µM (inactive) | > 100 µM (inactive)
28 | Cc1cc(Cl)ccc1NC(=O)CC1SC(Nc2ccccc2Cl)=NC1=O (stereo unspecified) | 26.4 µM (inactive) | > 100 µM (inactive) | 26.8 µM (inactive) | 34.9 µM (inactive) | 38.9 µM (inactive) | 45.6 µM (inactive) | 21.1 µM (inactive) | 62.1 µM (inactive) | 49.5 µM (inactive)
29 | Cc1nc2c(=O)n(C)c(=O)nc-2n(-c2ccc(Cl)cc2)c1C | > 100 µM (inactive) | > 100 µM (inactive) | 46.7 µM (inactive) | 62.7 µM (inactive) | > 100 µM (inactive) | > 100 µM (inactive) | > 100 µM (inactive) | > 100 µM (inactive) | > 100 µM (inactive)
30 | C[n+]1ccc2[nH]c3ccccc3c2c1 | > 100 µM (inactive) | > 45 µM (inactive) | > 100 µM (inactive) | > 100 µM (inactive) | > 100 µM (inactive) | – | – | – | > 100 µM (inactive)
